Results published in publication PMC7957578, “N-(1,3,4-Oxadiazol-2-yl)Benzamides as Antibacterial Agents against Neisseria gonorrhoeae” (International Journal of Molecular Sciences, 2021).
In brackets after ≈: the same amount, converted by molar mass. Where two headings read alike, the source gives them in different places.

How the values were obtained:
[1] = test system: N. gonorrhoeae strain 181; assay: MIC by broth microdilution against N. gonorrhoeae strain 181; type: cell-based, Neisseria gonorrhoeae; conditions: Neisseria gonorrhoeae; N. gonorrhoeae strain 181; read-out: MIC
Protocol: (§1) Briefly, bacteria were grown overnight on chocolate agar II at 37° C in the presence of 5% CO2. Afterwards, a bacterial suspension equivalent to 1.0 McFarland standard was prepared and diluted in brucella broth supplemented with yeast extract, neopeptone, hematin, pyridoxal, and NAD. Test agents were added in the first row of the 96-well plates and serially diluted along the plates. Plates were then incubated at 37° C in the presence of 5% CO2 for 24 h. […] Plates were then incubated at 37 ° C in the presence of 5% CO2 for 24 h. The MBC was categorized as the lowest concentration that reduced bacterial growth by 99.9% [45, 46, 47].

N. gonorrhoeae 165 = assay: MIC/MBC against N. gonorrhoeae clinical isolate 165; type: cell-based; conditions: Neisseria gonorrhoeae
Protocol: as §1

N. gonorrhoeae 166 = assay: MIC/MBC against N. gonorrhoeae clinical isolate 166; type: cell-based; conditions: Neisseria gonorrhoeae
Protocol: as §1

N. gonorrhoeae 194 = assay: MIC/MBC against N. gonorrhoeae clinical isolate 194; type: cell-based; conditions: Neisseria gonorrhoeae
Protocol: as §1

N. gonorrhoeae 197 = assay: MIC/MBC against N. gonorrhoeae clinical isolate 197; type: cell-based; conditions: Neisseria gonorrhoeae
Protocol: as §1

N. gonorrhoeae 200 = assay: MIC/MBC against N. gonorrhoeae clinical isolate 200; type: cell-based; conditions: Neisseria gonorrhoeae
Protocol: as §1

N. gonorrhoeae WHO L = assay: MIC/MBC against N. gonorrhoeae WHO L reference strain; type: cell-based; conditions: Neisseria gonorrhoeae
Protocol: as §1

[2] = test system: panel drug-resistant pathogenic N. gonorrhoeae strains; assay: MIC/MBC against a panel of drug-resistant N. gonorrhoeae strains; type: cell-based, Neisseria gonorrhoeae; conditions: MBC the same as or one-fold higher than MIC
S. aureus ATCC 25923 = assay: MIC/MBC (CLSI broth microdilution) against S. aureus ATCC 25923; type: cell-based; conditions: Staphylococcus aureus, ATCC25923, S. aureus ATCC 25923
Protocol: (§2) The minimum inhibitory concentrations (MICs) of the tested compounds and control drugs, linezolid, vancomycin, and gentamicin, were determined using the broth microdilution method according to the guidelines outlined by the Clinical and Laboratory Standards Institute (CLSI) against clinically relevant bacterial (Staphylococcus aureus, MRSA, Escherichia coli, Enterococcus faecalis and Enterococcus faecium strains. S. aureus, MRSA, E. coli, Enterococcus faecalis and Enterococcus faecium were grown aerobically overnight on tryptone soy agar (TSA) plates at 37° C. Afterwards, a bacterial solution equivalent to 0.5 McFarland standard was prepared and diluted in cation-adjusted Mueller–Hinton broth (CAMHB) (for S. aureus, MRSA, and E. coli) to achieve a bacterial concentration of about 5 × 10^5 CFU/mL. Enterococcus faecalis and Enterococcus faecium 0.5 McFarland standard solution was diluted in tryptone soy broth (TSB) to achieve a bacterial concentration of about 5 × 10^5 CFU/mL. Compounds and control drugs were added in the first row of 96-well plates and serially diluted with the corresponding media containing bacteria. Plates were then incubated as previously described. […] The minimum bactericidal concentration (MBC) was tested by spotting 4 µL from wells with no growth onto TSA plates. Plates were incubated at 37 ° C for at least 18 h before recording the MBC. The MBC was categorized as the lowest concentration that reduced bacterial growth by 99.9% [45, 46, 47].

MRSA USA300 = assay: MIC/MBC (CLSI broth microdilution) against MRSA USA300; type: cell-based, methicillin-resistant Staphylococcus aureus; conditions: Staphylococcus aureus, MRSA USA300
Protocol: as §2

E. faecalis ATCC 29212 = assay: MIC/MBC (CLSI broth microdilution) against E. faecalis ATCC 29212; type: cell-based; conditions: Enterococcus faecalis, ATCC29212, E. faecalis ATCC 29212
Protocol: as §2

VRE. faecalisATCC 51575 = assay: MIC/MBC (CLSI broth microdilution) against VRE faecalis ATCC 51575; type: cell-based; conditions: Enterococcus, VRE faecalis ATCC 51575
Protocol: as §2

VRE. faecalis ATCC 51299 = assay: MIC/MBC (CLSI broth microdilution) against VRE faecalis ATCC 51299; type: cell-based; conditions: Enterococcus, VRE faecalis ATCC 51299
Protocol: as §2

VRE. faecium ATCC 700221 = assay: MIC/MBC (CLSI broth microdilution) against VRE faecium ATCC 700221; type: cell-based; conditions: Enterococcus, VRE faecium ATCC 700221
Protocol: as §2

[3] = test system: L. monocytogenes ATCC 19115; assay: MIC/MBC (CLSI broth microdilution) against L. monocytogenes ATCC 19115; type: cell-based; conditions: Listeria monocytogenes, ATCC19115, L. monocytogenes ATCC 19115
[4] = test system: E. coli BW25113 (wild-type strain); assay: MIC/MBC (CLSI broth microdilution) against E. coli BW25113 wild type; type: cell-based, Escherichia coli; conditions: E. coli BW25113 wild-type strain
Protocol: as §2

[5] = test system: E. coli JW55031 (TolC Mutant); assay: MIC/MBC (CLSI broth microdilution) against E. coli TolC mutant; type: cell-based; conditions: Escherichia coli
Protocol: as §2

N. gonorrhoeae = assay: MIC against N. gonorrhoeae in presence of fetal bovine serum; type: cell-based; conditions: Neisseria gonorrhoeae, 24 h
[6] = test system: human colorectal cells (Caco-2); assay: In vitro cytotoxicity, MTS assay; type: cell-based
Protocol: HSGN-237 and -238 were assayed for potential cytotoxicity against a human colorectal adenocarcinoma (Caco-2) cell line, as described previously. Briefly, tested compounds were incubated with caco-2 cells for 24 and 48 h. Then, the cells were incubated with MTS (3-(4,5-dimethylthiazol-2-yl)-5-(3-carboxymethoxyphenyl)-2-(4-sulfophenyl)-2H-tetrazolium) reagent for 4 h before measuring the absorbance values (OD490).
Figure 2 In vitro cytotoxicity assessment of HSGN-237 and -238 (tested in triplicate) against human colorectal cells (Caco-2) after (A) 24 h, and (B) 48 h, using the 3-(4,5-dimethylthiazol-2-yl)-5-(3-carboxymethoxyphenyl)-2-(4-sulfophenyl)-2H-tetrazolium (MTS) assay. Results are presented as percent viable cells relative to DMSO (negative control). Error bars represent standard deviation values. A two-way ANOVA, with post hoc Dunnet’s multiple comparisons test, determined the statistical difference between the values obtained for the compound and DMSO. Asterisks denote statistically significant differences between treatments of cells with either HSGN-237 or -238 as compared to DMSO-treated cells. The experiment was repeated 3 independent times.

[7] = test system: tested bacterial strains (Table 3); assay: MBC versus MIC against the panel of Gram-positive and Gram-negative pathogens; type: cell-based; conditions: MBCs more than three-fold higher than MICs, strains of Table 3
Protocol: While the focus of these new N-(1,3,4-oxadiazol-2-yl)benzamides is towards N. gonorrhoeae, we proceeded to test their activity against other Gram-positive and Gram-negative pathogens. Intriguingly, HSGN-235, HSGN-237, and HSGN-238 had potent activity against the tested Gram-positive bacterial pathogens. For instance, all three compounds had potent activity against the staphylococcal strains, with MICs ranging from 0.25 to 1 µg/mL (Table 3). Furthermore, HSGN-235, HSGN-237, and HSGN-238 maintained potent activity against clinically relevant Gram-positive bacterial pathogens such as vancomycin-resistant enterococci (VRE) and Listeria monocytogenes (Table 3). Additionally, we moved to test if HSGN-235, HSGN-237, and HSGN-238 were active against other Gram-negative bacterial pathogens. […] This lack of activity against Gram-negative bacteria appears to be due to HSGN-235, HSGN-237, and HSGN-238 being a substrate for efflux.
The minimum inhibitory concentrations (MICs) of the tested compounds and control drugs, linezolid, vancomycin, and gentamicin, were determined using the broth microdilution method according to the guidelines outlined by the Clinical and Laboratory Standards Institute (CLSI) against clinically relevant bacterial (Staphylococcus aureus, MRSA, Escherichia coli, Enterococcus faecalis and Enterococcus faecium strains. S. aureus, MRSA, E. coli, Enterococcus faecalis and Enterococcus faecium were grown aerobically overnight on tryptone soy agar (TSA) plates at 37° C. Afterwards, a bacterial solution equivalent to 0.5 McFarland standard was prepared and diluted in cation-adjusted Mueller–Hinton broth (CAMHB) (for S. aureus, MRSA, and E. coli) to achieve a bacterial concentration of about 5 × 10^5 CFU/mL. Enterococcus faecalis and Enterococcus faecium 0.5 McFarland standard solution was diluted in tryptone soy broth (TSB) to achieve a bacterial concentration of about 5 × 10^5 CFU/mL. Compounds and control drugs were added in the first row of 96-well plates and serially diluted with the corresponding media containing bacteria. […]

Caco-2 bilayers = assay: Caco-2 bidirectional permeability assay; type: in vitro ADME, human; conditions: Caco-2 permeability classification
From the text: Oral bioavailability is a highly important consideration when developing bioactive molecules as therapeutic agents. A critical factor of oral bioavailability is human intestinal absorption. The Caco-2 bidirectional permeability assay is the most widely used in vitro model for predicting if a bioactive molecule can have adequate systemic absorption. Thus, we selected HSGN-238 to act as a model to analyze the drug-like properties of newly synthesized N-(1,3,4-oxadiazol-2-yl)benzamides.
Assay and data analysis were performed by Eurofins Panlabs (MO, USA) according to a previously reported protocol. The apparent permeability coefficient (Papp) of the tested agents was calculated using the equation below: Papp(cm/s)=VR∗CR,end/Δt∗1/A∗(CD,mid−CR,mid), where VR is the volume of the receiver chamber. CR,end is the concentration of the test compound in the receiver chamber at the end time point, Δt is the incubation time, and A is the surface area of the cell monolayer. CD,mid is the calculated mid-point concentration of the test compound in the donor side, which is the mean value of the donor concentration at 0 minutes and the donor concentration at the end time point. CR,mid is the mid-point concentration of the test compound in the receiver side, which is one half of the receiver concentration at the end time point. Concentrations of the test compound were expressed as peak areas of the test compound.

Work on `O=C(Nc1nnc(-c2cccc(F)c2)o1)c1ccc(OC(F)(F)F)cc1` [HSGN-237, N-(5-(3-Fluorophenyl)-1,3,4-oxadiazol-2-yl)-4-(trifluoromethoxy)benzamide] yielded an MIC [1] of 0.125 µg/mL (≈ 0.34 µM), an MBC (N. gonorrhoeae 165) of 0.125 µg/mL (≈ 0.34 µM) and an MIC (N. gonorrhoeae 165) of 0.06 µg/mL (≈ 0.163 µM). It also gave an MBC (N. gonorrhoeae 166) of 0.06 µg/mL (≈ 0.163 µM), an MIC (N. gonorrhoeae 166) of 0.06 µg/mL (≈ 0.163 µM) and an MBC (N. gonorrhoeae 194) of 0.06 µg/mL (≈ 0.163 µM). The MIC (N. gonorrhoeae 194) was 0.03 µg/mL (≈ 0.0817 µM), the MBC (N. gonorrhoeae 197) was 0.06 µg/mL (≈ 0.163 µM) and the MIC (N. gonorrhoeae 197) was 0.03 µg/mL (≈ 0.0817 µM). It also gave an MBC (N. gonorrhoeae 200) of 0.06 µg/mL (≈ 0.163 µM), an MIC (N. gonorrhoeae 200) of 0.06 µg/mL (≈ 0.163 µM) and an MBC (N. gonorrhoeae WHO L) of 0.06 µg/mL (≈ 0.163 µM). The MIC (N. gonorrhoeae WHO L) was 0.06 µg/mL (≈ 0.163 µM), the “type of activity from MBC versus MIC” value [2] was “bactericidal activity” and the MBC (S. aureus ATCC 25923; read-out: MBC) was over 64 µg/mL. The MIC (S. aureus ATCC 25923; read-out: MIC) was 0.25 µg/mL (≈ 0.681 µM), the MBC (MRSA USA300; read-out: MBC) was 32 µg/mL (≈ 87.1 µM) and the MIC (MRSA USA300; read-out: MIC) was 0.25 µg/mL (≈ 0.681 µM). For the same molecule, the MBC (E. faecalis ATCC 29212; read-out: MBC) was over 64 µg/mL, the MIC (E. faecalis ATCC 29212; read-out: MIC) was 1 µg/mL (≈ 2.72 µM) and the MBC (VRE. faecalisATCC 51575; read-out: MBC) was over 64 µg/mL. The MIC (VRE. faecalisATCC 51575; read-out: MIC) was 1 µg/mL (≈ 2.72 µM), the MBC (VRE. faecalis ATCC 51299; read-out: MBC) was 16 µg/mL (≈ 43.6 µM) and the MIC (VRE. faecalis ATCC 51299; read-out: MIC) was 0.5 µg/mL (≈ 1.36 µM). It also gave an MBC (VRE. faecium ATCC 700221; read-out: MBC) of 8 µg/mL (≈ 21.8 µM), an MIC (VRE. faecium ATCC 700221; read-out: MIC) of 0.5 µg/mL (≈ 1.36 µM) and an MBC ([3]; read-out: MBC) of 64 µg/mL (≈ 174 µM). For the same molecule, the MIC ([3]; read-out: MIC) was 0.5 µg/mL (≈ 1.36 µM), the MIC [4] was over 8 µg/mL and the MBC ([4]; Escherichia coli, read-out: MBC) was over 8 µg/mL. For the same molecule, the MIC ([4]; Escherichia coli, read-out: MIC) was over 8 µg/mL, the MBC [5] was 16 µg/mL (≈ 43.6 µM) and the MIC [5] was 0.25 µg/mL (≈ 0.681 µM). The MIC (N. gonorrhoeae; 1% FBS added to the media) was 0.125 µg/mL, the MIC (N. gonorrhoeae; 5% FBS added to the media) was 1 µg/mL and the MIC (N. gonorrhoeae; 10% FBS added to the media) was 4 µg/mL. The non-toxic concentration ([6]; Caco-2 cells, 24 and 48 h, MTS assay) was “higher than 64 µg/mL”, the “non-toxic concentration relative to MIC against N. gonorrhoeae” value ([6]; Caco-2 non-toxic concentration versus corresponding MIC) was 512 times and the “type of activity from MBC versus MIC” value [7] was “bacteriostatic agents”.

`CNC(=C[N+](=O)[O-])NCCSCc1ccc(CN(C)C)o1` [Ranitidine] was tested, and the “Notes (permeability class)” value (Caco-2 bilayers) was “Low Permeability Control”.
